# Measured values as given in US12383502B2, “Cold-water-dispersible chemical delivery system” (PHARMAKO BIOTECHNOLOGIES PTY LIMITED, priority 2017, dated 2025).
# Where two headings read alike, the source gives them in different places.
# Experiments:
# [1] = Dispersion of composition in water (visual); assay type: physicochemical; settings: for liquid dispersibility / wettability: solid placed on liquid (FIG. 2)
# Protocol: That the solid substance has non-wettable or poorly-wettable surfaces may be evidenced by the inability of the substance to effectively disperse in water at room temperature (i.e. when added to water, the substance substantially floats on top of the water or is poorly dispersed in the water, see FIG. 2). A sample was added to water to assay the dispersion of the composition. […] A sample of the composition was added to water and mixed and allowed to stand. […] A sample of the composition was added to water and mixed and allowed to stand.
# [2] = PEA pharmacokinetics, single 300 mg dose; assay type: in vivo, human; settings: for Cmax: po, 300 mg
# Protocol: A single equivalent dose, randomised, double blinded study was used to evaluate the pharmacokinetics of 2 different PEA formulations administered in single 300 mg doses (standard PEA and Lipisperse PEA from Batch#MT20170615_01 described in Example 7). All trial participants, investigators conducting the trial and the biochemist analysing the samples were blinded to who was on each product.
# Subjects were healthy adult male (n=10) and female (n=8; non-pregnant and non-lactating) volunteers between the ages of 18-30 years. All participants were advised to fast from 10:[…] the night prior to the study commencing until the collection of the first blood sample. Breakfast and lunch were provided to the participants at the centre. This is a standard feeding study with nutritionally balanced meals and snacks provided during the 0-6 hour sample collection. Subjects remained on site for the full 6 hours of sample collection. Only participants who provided at least 9 of the 11 samples collected between 0-24 hours had their data analysed.
# For PEA pharmacokinetic analysis, blood samples (3mL collected into ethylenediaminetetraacetic acid (EDTA) containing tubes) were drawn prior to supplementation (hour 0) and at 30, 45, 60, 90, 120, 180, 240, 300, 360 minutes and 24 hours post supplementation. Once obtained, the blood collection tube was briefly mixed by inversion, placed on ice and centrifuged within 10 minutes of collection (600×g, 4° C. for 10 minutes) to separate the plasma. Once spun, EDTA plasma was carefully removed and approximately 3×500 μl aliquots made. Aliquots were temporarily stored at −20° C. (<48 hours) before being transported and stored at −80° C.
# Plasma samples were removed from storage at −80° C. and allowed to thaw to room temperature. Once thawed, 100 μL of sample was added to a microfuge tube along with 20 μL of an internal standard solution (50 ng/mL of D8-arachidonic acid (D8-AA) in ethanol). Proteins were precipitated by adding 100 μL of acetone. The tubes were capped and vortex mixed for 15 seconds then put on ice for 10 minutes. The resulting solution was spun at 12,000×g for 10 minutes before the supernatant was removed into a new tube. To the supernatant, 800 μL of a methanol/chloroform solution (2:1) was added along with 240 μL of 3M HCl to achieve phase separation. This solution was vortex mixed for 10 seconds followed by gentle mixing on rotator. After 10 minutes of gentle rotation, the tubes were centrifuged at 12,000×g for 10 minutes with the resulting chloroform layer (bottom layer) transferred to a glass culture tube and dried under a stream of nitrogen gas.
# Once dry, the samples were reconstituted in 100 μL of ethanol, mixed and the contents transferred to salinized GC-MS glass inserts and dried under nitrogen. Once dry, the samples were derivatized via the addition of 40 μL of pentafluorobenzylbromide (PFBBr, 10% in acetonitrile −4 μL of PFBBr and 36 μL of ACN) and 20 μL di-isopropylethylamine (DIPEA, 10% in acetonitrile−2 μL DIPEA and 18 μL of ACN) and vortex mixed for 5 seconds. Samples were then incubated at room temperature for 30 min before being dried under nitrogen and the insert placed into GC-MS vials. To each vial, 10 μL of anhydrous pyridine and 20 μL of bis-(trimethylsilyl)trifluoroacetamide and trimethylchlorosilane (BSTFA+TMCS, 99:1) was added, the vial capped and vortex mixed for 5 seconds. The samples were incubated for 20 min at 45° C. The samples were allowed to cool before 70 μL of anhydrous hexane was added and the samples place on the auto sampler rack for analysis.
# The standard PEA was purchased from Sigma Aldrich (P0359-10MG) and stored at −20° C. as per manufacturer's instructions. The PEA standard was made up to 1 mM solution with ethanol. Working standard solutions were prepared by diluting the 1 mM solution (or 1 μM/mL) 1:10 with ethanol for a 100 nM/mL solution. This solution was further diluted 1:10 with hexane for a concentration of 10 nM/mL. […]
compound,measurement,setting,value
"CCCCCCCCCCCCCCCC(=O)NCCO [PEA, Palmitoylethanolamide]",liquid dispersibility / wettability,[1],"sitting on top of a liquid, without dispersion"
"CCCCCCCCCCCCCCCC(=O)NCCO [Standard PEA, Palmitoylethanolamide]",Cmax,"[2]; both sexes, human, plasma, plasma, single oral 300 mg, n=9 per group, read-out: Cmax PEA",3010 ± 1240 ng/mL
same,Cmax,"[2]; both sexes, human, plasma, plasma, single oral 300 mg, n=9 per group, read-out: Delta Cmax (peak change in PEA concentration from baseline)",410 ng/mL
same,concentration at 24 h,"[2]; both sexes, human, plasma, single oral 300 mg, data not shown, read-out: plasma PEA concentration at the 24 hours collection",2690 ± 1060 ng/mL
same,concentration at 0 h,"[2]; both sexes, human, plasma, prior to supplementation (hour 0), n=9 per group, read-out: Baseline PEA concentration",2590 ± 770 ng/mL
same,Peak timing,"[2]; plasma PEA, single oral 300 mg",45 min
same,adverse events,"[2]; single 300 mg dose, n=9 per group",No adverse events
COc1cc(/C=C/C(=O)CC(=O)/C=C/c2ccc(O)c(OC)c2)ccc1O [curcumin],liquid dispersibility / wettability,[1],"sitting on top of a liquid, without dispersion"
"Oc1ccc(C=Cc2cc(O)cc(O)c2)cc1 [untreated resveratrol, resveratrol]",dispersion in water after mixing and standing,"[1]; added to water, mixed and allowed to stand (FIG. 10, FIG. 16)",does not disperse effectively
